Measurements published in the NIST ThermoML archive (doi:10.1021/je049671t).
Numbers after ± are expanded uncertainties.

Assay: xn = mol fraction of the nth substance listed
Details: Liquid, Vibrating tube method

CC(C)C [2-methylpropane] + CCC
Details	mass density [kg/m3]
260 K, 7006.2 kPa, x2 = 0.25	595.15 ± 0.34
280 K, 467.2 kPa, x2 = 0.499	549.36 ± 0.28
280 K, 478.7 kPa, x2 = 0.75	535.35 ± 0.28
280 K, 500.3 kPa, x2 = 0.25	562.94 ± 0.28
280 K, 952.8 kPa, x2 = 0.499	550.3 ± 0.29
280 K, 990.6 kPa, x2 = 0.75	536.42 ± 0.29
280 K, 1004.7 kPa, x2 = 0.25	563.86 ± 0.28
280 K, 1462.8 kPa, x2 = 0.25	564.67 ± 0.29
280 K, 1514 kPa, x2 = 0.499	551.39 ± 0.29
280 K, 1517.2 kPa, x2 = 0.75	537.51 ± 0.3
280 K, 2007.8 kPa, x2 = 0.25	565.62 ± 0.29
280 K, 2007.8 kPa, x2 = 0.499	552.34 ± 0.3
280 K, 2029.6 kPa, x2 = 0.75	538.54 ± 0.3
280 K, 2489.1 kPa, x2 = 0.499	553.22 ± 0.3
280 K, 2510.3 kPa, x2 = 0.75	539.5 ± 0.31
280 K, 2513.6 kPa, x2 = 0.25	566.51 ± 0.3
280 K, 2999.1 kPa, x2 = 0.25	567.36 ± 0.3
280 K, 3019.4 kPa, x2 = 0.75	540.5 ± 0.31
280 K, 3022.9 kPa, x2 = 0.499	554.21 ± 0.31
280 K, 3488.8 kPa, x2 = 0.25	568.19 ± 0.31
280 K, 3519.6 kPa, x2 = 0.499	555.1 ± 0.31
280 K, 3522.3 kPa, x2 = 0.75	541.47 ± 0.32
280 K, 3992 kPa, x2 = 0.499	555.95 ± 0.32
280 K, 3992.4 kPa, x2 = 0.25	569.03 ± 0.31
280 K, 4026.3 kPa, x2 = 0.75	542.43 ± 0.32
280 K, 4516.8 kPa, x2 = 0.25	569.91 ± 0.32
280 K, 4518.6 kPa, x2 = 0.499	556.87 ± 0.33
280 K, 4544.4 kPa, x2 = 0.75	543.38 ± 0.33
280 K, 4965.2 kPa, x2 = 0.75	544.17 ± 0.34
280 K, 4979.1 kPa, x2 = 0.25	570.66 ± 0.33
280 K, 5014 kPa, x2 = 0.499	557.72 ± 0.33
280 K, 5482.8 kPa, x2 = 0.499	558.54 ± 0.34
280 K, 5485 kPa, x2 = 0.25	571.47 ± 0.33
280 K, 5530.9 kPa, x2 = 0.75	545.19 ± 0.34
280 K, 5989.4 kPa, x2 = 0.25	572.28 ± 0.34
280 K, 6012.9 kPa, x2 = 0.75	546.05 ± 0.35
280 K, 6027 kPa, x2 = 0.499	559.46 ± 0.34
280 K, 6488.2 kPa, x2 = 0.75	546.89 ± 0.35
280 K, 6525.9 kPa, x2 = 0.499	560.31 ± 0.35
280 K, 6532.5 kPa, x2 = 0.25	573.13 ± 0.34
280 K, 6931.1 kPa, x2 = 0.75	547.66 ± 0.36
280 K, 6938.9 kPa, x2 = 0.499	560.98 ± 0.35
280 K, 6965.6 kPa, x2 = 0.25	573.82 ± 0.35
280 K, 6968.2 kPa, x2 = 0.25	573.78 ± 0.35
300 K, 824.3 kPa, x2 = 0.75	507.35 ± 0.3
300 K, 996.8 kPa, x2 = 0.499	523.82 ± 0.29
300 K, 1001.6 kPa, x2 = 0.25	538.53 ± 0.29
300 K, 1503.7 kPa, x2 = 0.25	539.71 ± 0.29
300 K, 1519.6 kPa, x2 = 0.499	525.17 ± 0.3
300 K, 1534 kPa, x2 = 0.75	509.38 ± 0.3
300 K, 2006.6 kPa, x2 = 0.25	540.87 ± 0.3
300 K, 2026.1 kPa, x2 = 0.499	526.45 ± 0.31
300 K, 2028.3 kPa, x2 = 0.75	510.77 ± 0.31
300 K, 2493.2 kPa, x2 = 0.75	512.04 ± 0.32
300 K, 2510.6 kPa, x2 = 0.25	542.01 ± 0.31
300 K, 2530.4 kPa, x2 = 0.499	527.7 ± 0.31
300 K, 3014.6 kPa, x2 = 0.25	543.13 ± 0.31
300 K, 3028.7 kPa, x2 = 0.75	513.47 ± 0.32
300 K, 3043.4 kPa, x2 = 0.499	528.93 ± 0.32
300 K, 3486.8 kPa, x2 = 0.499	529.95 ± 0.32
300 K, 3488.8 kPa, x2 = 0.25	544.16 ± 0.32
300 K, 3519.2 kPa, x2 = 0.75	514.75 ± 0.33
300 K, 3995.5 kPa, x2 = 0.499	531.16 ± 0.33
300 K, 3996.7 kPa, x2 = 0.75	515.97 ± 0.33
300 K, 4012 kPa, x2 = 0.25	545.28 ± 0.32
300 K, 4467.1 kPa, x2 = 0.75	517.17 ± 0.34
300 K, 4483.4 kPa, x2 = 0.25	546.25 ± 0.33
300 K, 4503.6 kPa, x2 = 0.499	532.34 ± 0.34

mass density [kg/m3]
Details	x2 = 0.25	x2 = 0.499	x2 = 0.75
260 K	585.98 ± 0.27	–	560.96 ± 0.27
280 K	562.49 ± 0.27	549.15 ± 0.28	535.32 ± 0.28
